The values below come from ChEMBL document CHEMBL1201862, “PubChem BioAssay data set” (2004).

Test systems include TK-10; UACC-257; U-251; DLD-1; SNB-78; M19-MEL; SK-MEL-2; DMS-114; COLO 205; M14; Malme-3M; NCI-H226; LOX IMVI; Hs-578T; DU-145; T47D; PC-3; BT-549; MDA-MB-231; MDA-MB-435.
What all share (assay): NCI anticancer screen, dose series, 48 h

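96-well plates; 48 h exposure; 5 concentrations. Endpoints by linear interpolation between flanking doses. Not reached: highest tested concentration assigned. GI50 marks 50% less growth.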 Activity calls are given as the source filed them. No stated cut-off is given here; in the data, active = GI50 up to about 1.1 µM and inactive = higher. Some results are limits rather than exact numbers.

For `CCCCCCCCC[C@@H]1C[C@H](O)[C@H](Cc2ccccc2)N1C(=O)OC(C)(C)C`, the GI50 was 15.5 µM (inactive) in the assay with TK-10; 15.8 µM (inactive) in the assay on UACC-257; 16.1 µM (inactive) in the assay with U-251; 18.3 µM (inactive) in the assay on DLD-1; 22.8 µM (inactive) with SNB-78; 16.8 µM (inactive) in the assay with M19-MEL. For the same compound, the GI50 is 15.3 µM (inactive) in the assay with SK-MEL-2; 16.9 µM (inactive) in the assay with DMS-114; 17 µM (inactive) in the assay on COLO 205; 22.6 µM (inactive) in the assay with M14; 20.1 µM (inactive) in the assay with Malme-3M.
As for `O=C(Nc1ccc(C2=NCCN2)cc1)c1cncc(C(=O)Nc2ccc(C3=NCCN3)cc2)c1`, the GI50 in the assay with UACC-257 was > 100 µM (inactive); in the assay on U-251, > 100 µM (inactive); with NCI-H226, > 94.6 µM (inactive); in the assay with DLD-1, > 100 µM (inactive); in the assay on SNB-78, > 100 µM (inactive); with LOX IMVI it was > 100 µM (inactive). Moreover, the GI50 in the assay with M19-MEL, with SK-MEL-2, with DMS-114, in the assay with COLO 205 and in the assay on Malme-3M was > 100 µM (inactive) throughout.
Consider `Cc1nnc2sc(N/N=C/c3ccccc3)nn12`, for which the GI50 with TK-10, with UACC-257, with U-251, in the assay on Hs-578T, in the assay on NCI-H226 and in the assay on DU-145 was > 100 µM (inactive) throughout. Besides, the GI50 in the assay on T47D, in the assay on LOX IMVI, with SK-MEL-2, with PC-3, with BT-549 and in the assay on COLO 205 was > 100 µM (inactive) in each case. For the same compound, the GI50 in the assay with MDA-MB-231, with M14, in the assay on Malme-3M and with MDA-MB-435 was > 100 µM (inactive) throughout.
Take `N=C(N)N/N=C\c1c(-c2cccc([N+](=O)[O-])c2)nc2sccn12`: the GI50 was 2.47 µM (inactive) in the assay with TK-10; 23.7 µM (inactive) in the assay with UACC-257; 2.79 µM (inactive) in the assay with U-251; 3.62 µM (inactive) with Hs-578T; 2.68 µM (inactive) in the assay with NCI-H226; 5.16 µM (inactive) with DU-145. For the same compound, the GI50 was 1.62 µM (inactive) in the assay with T47D; 3.89 µM (inactive) in the assay with LOX IMVI; 2.37 µM (inactive) in the assay on SK-MEL-2; 6.7 µM (inactive) with PC-3; 2.1 µM (inactive) in the assay with BT-549; 2.39 µM (inactive) in the assay with COLO 205. For the same compound, the GI50 in the assay on MDA-MB-231 is 2.15 µM (inactive); in the assay with M14, 2.52 µM (inactive); with Malme-3M it was 24.4 µM (inactive); in the assay with MDA-MB-435, 2.59 µM (inactive).
As to `N#C/C(=C\c1ccc(Br)cc1)c1nc(-c2cc3ccccc3oc2=O)cs1`, the GI50 was 10.2 µM (inactive) in the assay with TK-10; 11.7 µM (inactive) in the assay with UACC-257; 9.93 µM (inactive) in the assay on U-251; 11.5 µM (inactive) in the assay on Hs-578T; 11.9 µM (inactive) in the assay with NCI-H226; 15.7 µM (inactive) in the assay with DU-145. Also, the GI50 is 22.7 µM (inactive) in the assay on T47D; 24.8 µM (inactive) in the assay on LOX IMVI; 17.1 µM (inactive) with SK-MEL-2; 21 µM (inactive) with PC-3; 7.29 µM (inactive) with BT-549; > 50 µM (inactive) in the assay on COLO 205. Also, the GI50 was 10.1 µM (inactive) with MDA-MB-231, 14.9 µM (inactive) in the assay with M14, 10.5 µM (inactive) in the assay with Malme-3M and 23.5 µM (inactive) in the assay on MDA-MB-435.
With `CCOc1cc(C2CC(c3ccc(NS(=O)(=O)c4cc([N+](=O)[O-])ccc4C)cc3)=NN2S(=O)(=O)c2cc([N+](=O)[O-])ccc2C)ccc1O` (stereo not given), the GI50 is 36.4 µM (inactive) in the assay on TK-10; 32.7 µM (inactive) in the assay with UACC-257; 30.7 µM (inactive) in the assay with U-251; 42.4 µM (inactive) in the assay with Hs-578T; 31.6 µM (inactive) in the assay on NCI-H226; 43.8 µM (inactive) in the assay with DU-145. The GI50 was 19.8 µM (inactive) with T47D; 40.1 µM (inactive) with LOX IMVI; 22.6 µM (inactive) with SK-MEL-2; 32.7 µM (inactive) with PC-3; 39.4 µM (inactive) in the assay with BT-549; 37.4 µM (inactive) in the assay on COLO 205. For the same compound, the GI50 in the assay with MDA-MB-231 is 32.1 µM (inactive); in the assay with M14 it was 34.1 µM (inactive); in the assay with Malme-3M, 23.3 µM (inactive); in the assay with MDA-MB-435, 38.4 µM (inactive).
Consider `CC(C)CCC1CC2C(=O)N(c3ccccc3)C(=O)C2c2[nH]c3ccccc3c21` (stereo not given), for which the GI50 with TK-10 was 4.53 µM (inactive); in the assay on U-251 it was 0.455 µM (active); in the assay with NCI-H226, 2.66 µM (inactive); in the assay on DLD-1, 2.18 µM (inactive); in the assay with SNB-78, 3.45 µM (inactive); in the assay on LOX IMVI it was 1.08 µM (active). In addition, the GI50 in the assay with M19-MEL is 5.2 µM (inactive); with DMS-114 it was 0.6 µM (active); in the assay on COLO 205, 1.38 µM (inactive); with M14 it was 0.288 µM (active); with Malme-3M it was 0.871 µM (active).
For the compound `CCC1CN2CCC1CC2` (stereo not given), the GI50 in the assay on UACC-257 is > 91.4 µM (inactive); in the assay with U-251, > 100 µM (inactive); with NCI-H226, > 100 µM (inactive); in the assay on DLD-1, > 100 µM (inactive); in the assay on SNB-78 it was > 100 µM (inactive); with LOX IMVI, > 100 µM (inactive). Besides, the GI50 with M19-MEL, in the assay on SK-MEL-2, in the assay on DMS-114, in the assay with COLO 205 and in the assay on Malme-3M was > 100 µM (inactive) throughout.
With `O=C1C2C(C(=O)N1OS(=O)(=O)c1ccccc1)N(Cc1ccccc1)C(=O)N2Cc1ccccc1` (stereo not given), the GI50 with TK-10, with UACC-257, in the assay with U-251, in the assay on NCI-H226, in the assay with DLD-1 and with SNB-78 was > 100 µM (inactive) in each case. In addition, the GI50 in the assay on LOX IMVI, in the assay with M19-MEL, in the assay with DMS-114, in the assay on COLO 205, in the assay on M14 and with Malme-3M was > 100 µM (inactive) in each case.
Take `CC(=O)N(CCN1C(=O)c2ccccc2C1=O)CCN1C(=O)c2ccccc2C1=O`: the GI50 in the assay with TK-10, in the assay with UACC-257, in the assay with U-251, in the assay with DLD-1, with SNB-78 and with LOX IMVI was > 100 µM (inactive) throughout. The GI50 with M19-MEL, in the assay on SK-MEL-2, with DMS-114, in the assay on COLO 205 and in the assay with M14 was > 100 µM (inactive) throughout.
In the case of `COc1c(Cl)cc(S(=O)O)cc1Cl`, the GI50 in the assay on TK-10, in the assay on UACC-257, with U-251, in the assay on DLD-1, in the assay on SNB-78 and with LOX IMVI was > 100 µM (inactive) throughout. Further, the GI50 in the assay with M19-MEL, in the assay with SK-MEL-2, in the assay with DMS-114, with M14 and with Malme-3M was > 100 µM (inactive) each time.
On to `CC(NNC(=O)c1cc[n+]([BH2-]C#N)cc1)c1ccc(F)cc1` (stereo not given), for which the GI50 in the assay with TK-10, in the assay with UACC-257, in the assay with U-251, in the assay on Hs-578T, with NCI-H226 and in the assay on DU-145 was > 100 µM (inactive) in each case. For the same compound, the GI50 in the assay on T47D, with LOX IMVI, with SK-MEL-2, with PC-3, in the assay with BT-549 and with COLO 205 was > 100 µM (inactive) in each case. For the same compound, the GI50 in the assay with MDA-MB-231, with M14, in the assay with Malme-3M and in the assay on MDA-MB-435 was > 100 µM (inactive) in each case.
`C[C@H]1[C@@H]2C[C@@H]3O[C@@]34[C@H]3CCC5Cc6nc7c(nc6C[C@@]5(C)[C@]3(O)CC(=O)[C@@]24CO[C@]12OC(C)(C)C[C@@H]2O)CC1CC[C@@H]2C3=C[C@H]4O[C@@]5(OC(C)(CO)C[C@@H]5O)[C@H](C)[C@@]4(O)[C@]3(C)[C@@H](O)CC2[C@]1(C)C7` (stereo not given in full): the GI50 is 0.139 µM (active) with UACC-257; 0.00511 µM (active) with U-251; 0.0184 µM (active) with NCI-H226; 0.191 µM (active) in the assay on DLD-1; 0.00792 µM (active) in the assay on SNB-78; 0.024 µM (active) with LOX IMVI. For the same compound, the GI50 was 2.77 µM (inactive) in the assay on M19-MEL; 0.0239 µM (active) with SK-MEL-2; 0.0119 µM (active) with DMS-114; 0.0655 µM (active) in the assay on COLO 205; 0.0381 µM (active) in the assay with Malme-3M.
On to `COC(=O)[C@@H]1c2cc3c(c(O)c2[C@@H](OC)C[C@@]1(C)O)C(=O)c1c(O)cc2c(c1C3=O)OC1O[C@@]2(C)[C@H](O)[C@@H](N(C)C)[C@@H]1O`, for which the GI50 in the assay with UACC-257 was 0.337 µM (active); with U-251, 0.307 µM (active); in the assay on NCI-H226 it was 0.301 µM (active); in the assay on DLD-1 it was 1.86 µM (inactive); with SNB-78 it was 0.552 µM (active); in the assay with M19-MEL, 0.266 µM (active). Further, the GI50 was 0.28 µM (active) in the assay on SK-MEL-2, 0.217 µM (active) with DMS-114, 0.257 µM (active) with COLO 205 and 0.506 µM (active) with Malme-3M.
Consider `Cn1c2ccccc2c(=O)c2c(O)cc3c(c21)C=CC(C)(C)O3` [NORACRONYCINE], for which the GI50 with UACC-257 was > 25 µM (inactive); with U-251, > 25 µM (inactive); in the assay with NCI-H226, > 25 µM (inactive); with DLD-1 it was 19.4 µM (inactive); with SNB-78, > 25 µM (inactive); with LOX IMVI, > 25 µM (inactive). For the same compound, the GI50 with M19-MEL, in the assay on SK-MEL-2, with DMS-114, in the assay on COLO 205 and with Malme-3M was > 25 µM (inactive) throughout.
